Measurements from BindingDB's records for patent US11414428 (Auckland UniServices Limited, 2022).

Target: Indoleamine 2,3-dioxygenase 1 (Homo sapiens, UniProt P14902)
Test: Enzymatic Assay
Description: Recombinant human IDO1 (rhIDO1) was expressed and purified from cultures of EC538 strain of E. coli transformed with pREP4 and pQE9-IDO plasmid. Reaction mixes were set up in 384-well microplates containing 50 mM phosphate buffer, 10 mM ascorbic, 10 μM methylene blue, 100 μg/mL catalase, 80 μM TRP, 0.01% Tween 20 (v/v) mixed with rhIDO1 (15 μL) at a final concentration of 9 nM in a total volume of 30 μL assay medium. The plates were incubated at 37° C. for 30 min, and the enzymatic reaction was terminated by adding piperidine (200 mM) and heated at 65° C. for 20 min. Fluorescence intensity was read at λex 400 nm and λem 500 nm. Test compounds were dissolved in 100% DMSO and pre-diluted in assay medium prior to adding rhIDO1.

Sequence of Indoleamine 2,3-dioxygenase 1 (P14902 whole entry): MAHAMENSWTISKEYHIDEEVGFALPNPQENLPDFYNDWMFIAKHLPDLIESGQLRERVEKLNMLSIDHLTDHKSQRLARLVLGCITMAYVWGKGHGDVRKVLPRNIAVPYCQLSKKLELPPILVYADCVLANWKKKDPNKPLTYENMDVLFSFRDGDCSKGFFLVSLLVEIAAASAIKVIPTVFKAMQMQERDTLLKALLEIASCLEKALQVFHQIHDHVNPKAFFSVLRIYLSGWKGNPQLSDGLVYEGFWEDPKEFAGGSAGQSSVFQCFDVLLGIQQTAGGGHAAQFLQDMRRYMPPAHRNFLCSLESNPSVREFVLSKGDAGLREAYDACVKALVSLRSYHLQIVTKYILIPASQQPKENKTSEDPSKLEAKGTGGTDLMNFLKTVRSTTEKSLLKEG

IC50: in the range around 5.5 µM
Compound: Cc1nc2onc(N)c2c(C)c1Cl [US11414428, Compound 1]
